Source: patent US20250248975
Where two headings read alike, the source gives them in different places.

Question: For “Mixture of 21-(benzenesulfonyl)-6-(3-bromophenyl)-24,30-difluoro-10,10-dimethyl-9,26-dioxa-5,12,13,21,33-pentazahexacyclo[25.3.1.12,5.112,15.017,25.018,22]tritriaconta-1(31),2(33),3,13,15(32),17,19,22,24,27,29-undecaene and 22-(benzenesulfonyl)-7-(3-bromophenyl)-25,31-difluoro-11,11-dimethyl-10,27-dioxa-5,6,13,14,22-pentazahexacyclo[26.3.1.113,16.02,6.018,26.019,23]tritriaconta-1(32),2,4,14,16(33),18,20,23,25,28,30-undecaene”, which ring closure, isolated yield (other bond, 19-membered ring, CMBP, 1,4-dioxane, 24.7 mM, 145.0 °C) is on record?
Answer: The ring closure, isolated yield was 55%.

Question: For `COC(=O)/C=C/c1cccc(C2(C)CCCC#Cc3nc(cs3)Cc3c(c(F)cc4c3ccn4S(=O)(=O)c3ccc(C)cc3)Oc3ccc(F)c(c3)-c3ncc2[nH]3)c1` (centres unmarked), which ring closure, isolated yield (from C#CCCCC(C)(c1cccc(/C=C/C(=O)OC)c1)c1cnc(-c2cc(Oc3c(F)cc4c(ccn4S(=O)(=O)c4ccc(C)cc4)c3Cc3csc(I)n3)ccc2F)[nH]1, cc_pd bond, 19-membered ring, PdCl2(PPh3)2/CuI/TEA, DMF, 10.6 mM, 60.0 °C) is on record?
Answer: The ring closure, isolated yield was 15%.

Question: Which ring closure, isolated yield (from CCOC(=O)C(C)Cc1cccc(C(C)(CCC(C)(C)CO)c2nc(-c3cc(Oc4c(F)cc5c(ccn5S(=O)(=O)c5ccccc5)c4Cn4cc(O)nn4)ccc3F)n(C)n2)c1, ether bond, 19-membered ring, CMBP, toluene, 11.3 mM, 150.0 °C, 1.0 h) does the source give for `CCOC(=O)C(C)Cc1cccc(C2(C)CCC(C)(C)COc3cn(nn3)Cc3c(c(F)cc4c3ccn4S(=O)(=O)c3ccccc3)Oc3ccc(F)c(c3)-c3nc2nn3C)c1` (centres unmarked) here?
Answer: Its ring closure, isolated yield is 50%.

Question: With `Cn1nc2nc1-c1cc(ccn1)Oc1c(F)cc3[nH]ccc3c1Cn1cc(nn1)C(C)(C)CCCC[C@]2(C)c1cccc(I)c1` as the compound, how does the ring closure, isolated yield (triazole bond, 19-membered ring, 4 steps) read?
Answer: Its ring closure, isolated yield is 22.1%.

Question: Which ring closure, isolated yield (from CC(CCCC(O)CN)(c1cccc(I)c1)c1cnc(-c2cc(Oc3c(F)cc4[nH]ccc4c3/C=C/C(=O)O)ccc2F)[nH]1, amide bond, 19-membered ring, EDC.HCl/HOBt, THF/DMF 10:1, 102.0 mM, 18.0 h) does the source give for `CC1(c2cccc(I)c2)CCCC(O)CNC(=O)/C=C/c2c(c(F)cc3[nH]ccc23)Oc2ccc(F)c(c2)-c2ncc1[nH]2` (centres unmarked) here?
Answer: Its ring closure, isolated yield is 40%.

Question: Which ring closure, isolated yield (triazole bond, 19-membered ring, 3 steps) does the source give for `Cc1ccc(S(=O)(=O)n2ccc3c4c(c(F)cc32)Sc2cccc(c2)-c2ccn(n2)C(c2cccc(Br)c2)CCCCC(C)(C)c2cn(nn2)C4)cc1` (centres unmarked) here?
Answer: Its ring closure, isolated yield is 22.5%.

Question: Which ring closure, isolated yield (rcm bond, 19-membered ring, Grubbs II, toluene, 100.0 °C) does the source give for `Cn1nc2nc1-c1cc(ccc1F)Oc1c(F)cc3c(ccn3S(=O)(=O)c3ccccc3)c1Cn1cc(cn1)C(C)(C)C/C=C\CC2(C)c1cccc(Br)c1` (centres unmarked) here?
Answer: The ring closure, isolated yield was 62%.

Question: For “Methyl (2R)-3-[3-[21-(benzenesulfonyl)-9,9,24,30-tetrafluoro-3,6-dimethyl-)1-oxa-26-thia-3,4,15,21,32,33-hexazahexacyclo[25.3.1.12,5.112,15.017,25.018,22]tritriaconta-1(31),2(33),4,12(32),13,17,19,22,24,27,29-undecaen-6-yl]phenyl]-2-methylpropanoate”, which ring closure, isolated yield (other bond, 19-membered ring, CMBP, toluene, 150.0 °C, 3 steps) is on record?
Answer: Its ring closure, isolated yield is 11.6%.

Question: Which ring closure, isolated yield (the molecule shown is the open-chain precursor, triazole bond, 19-membered ring) does the source give for `C#CC(C)(C)CCCCC(C)(c1cccc(CCC(=O)OC)c1)c1csc(-c2cc(Oc3c(F)cc4[nH]ccc4c3CN=[N+]=[N-])ccc2F)n1` (centres unmarked) here?
Answer: Its ring closure, isolated yield is 77%.

Question: Which ring closure, isolated yield (from CCOC(=O)C(C)Cc1cccc(C(C)(CCC(C)(C)COc2cc[nH]n2)c2nc(-c3cc(Oc4c(F)cc5c(ccn5S(=O)(=O)c5ccccc5)c4CO)ccc3F)n(C)n2)c1, other bond, 18-membered ring, CMBP, toluene, 13.6 mM, 150.0 °C, 1.0 h) does the source give for `CCOC(=O)C(C)Cc1cccc(C2(C)CCC(C)(C)COc3ccn(n3)Cc3c(c(F)cc4c3ccn4S(=O)(=O)c3ccccc3)Oc3ccc(F)c(c3)-c3nc2nn3C)c1` (single isomer, unassigned; isomer 2) here?
Answer: Its ring closure, isolated yield is 21%.

Question: For `Cn1cc2nc1-c1cccc(c1)Oc1c(F)cc3[nH]ccc3c1Cn1cc(nn1)C(C)(C)OCCCC2(C)c1cccc(Br)c1` (centres unmarked), which ring closure, isolated yield (from C#CC(C)(C)OCCCC(C)(c1cccc(Br)c1)c1cn(C)c(-c2cccc(Oc3c(F)cc4[nH]ccc4c3CN=[N+]=[N-])c2)n1, triazole bond, 19-membered ring, Cu(MeCN)4BF4/TBTA, DCM, 3.2 mM, 45.0 °C) is on record?
Answer: Its ring closure, isolated yield is 60%.

Question: With `CCOC(=O)CCc1cccc(C2CC/C=C/CC(C)(C)c3cnn(c3)Cc3c(c(F)cc4c3ccn4S(=O)(=O)c3ccc(C)cc3)Oc3ccc(F)c(c3)-c3ccn2n3)c1` (centres unmarked) as the compound, how does the ring closure, isolated yield (from C=CCCC(c1cccc(CCC(=O)OCC)c1)n1ccc(-c2cc(Oc3c(F)cc4c(ccn4S(=O)(=O)c4ccc(C)cc4)c3Cn3cc(C(C)(C)CC=C)cn3)ccc2F)n1, rcm bond, 20-membered ring, Hoveyda-Grubbs II, toluene, 1.26 mM, 60.0 °C, 12.0 h) read?
Answer: Its ring closure, isolated yield is 66%.

Question: Which ring closure, isolated yield (rcm bond, 19-membered ring) does the source give for `Cn1nc2nc1-c1cc(ccc1F)Sc1c(F)cc3c(ccn3S(=O)(=O)c3ccccc3)c1Cn1cc(cn1)C(C)(C)C/C=C\CC2(C)c1cccc(Br)c1` (centres unmarked) here?
Answer: The ring closure, isolated yield was 79%.

Question: For `Cc1ccc(S(=O)(=O)n2ccc3c4c(c(F)cc32)Sc2ccc(F)c(c2)-c2ccn(n2)C(c2cccc(Br)c2)CCOCC(C)(C)c2cn(nn2)C4)cc1` (centres unmarked), which ring closure, isolated yield (from C#CC(C)(C)COCCC(c1cccc(Br)c1)n1ccc(-c2cc(Sc3c(F)cc4c(ccn4S(=O)(=O)c4ccc(C)cc4)c3CN=[N+]=[N-])ccc2F)n1, triazole bond, 19-membered ring, Cu(MeCN)4BF4 (0.1 eq)/TBTA (0.1 eq), DCM, 43.4 mM, 45.0 °C) is on record?
Answer: The ring closure, isolated yield was 61%.
